From patent US20090105261A1, “Novel substituted pyrazolo[1,5<I>A</I>]-1,3,5-Triazine derivatives and their analogues, pharmaceutical compositions containing same, use thereof as medicine and methods for preparing same” (GREENPHARMA, priority 2002, published 2009) come the findings set out here.

Series [1] addresses T1, PDE6 (bovine) (Bos taurus, UniProt P11541+P23439).
T1 sequence (P11541 2-856): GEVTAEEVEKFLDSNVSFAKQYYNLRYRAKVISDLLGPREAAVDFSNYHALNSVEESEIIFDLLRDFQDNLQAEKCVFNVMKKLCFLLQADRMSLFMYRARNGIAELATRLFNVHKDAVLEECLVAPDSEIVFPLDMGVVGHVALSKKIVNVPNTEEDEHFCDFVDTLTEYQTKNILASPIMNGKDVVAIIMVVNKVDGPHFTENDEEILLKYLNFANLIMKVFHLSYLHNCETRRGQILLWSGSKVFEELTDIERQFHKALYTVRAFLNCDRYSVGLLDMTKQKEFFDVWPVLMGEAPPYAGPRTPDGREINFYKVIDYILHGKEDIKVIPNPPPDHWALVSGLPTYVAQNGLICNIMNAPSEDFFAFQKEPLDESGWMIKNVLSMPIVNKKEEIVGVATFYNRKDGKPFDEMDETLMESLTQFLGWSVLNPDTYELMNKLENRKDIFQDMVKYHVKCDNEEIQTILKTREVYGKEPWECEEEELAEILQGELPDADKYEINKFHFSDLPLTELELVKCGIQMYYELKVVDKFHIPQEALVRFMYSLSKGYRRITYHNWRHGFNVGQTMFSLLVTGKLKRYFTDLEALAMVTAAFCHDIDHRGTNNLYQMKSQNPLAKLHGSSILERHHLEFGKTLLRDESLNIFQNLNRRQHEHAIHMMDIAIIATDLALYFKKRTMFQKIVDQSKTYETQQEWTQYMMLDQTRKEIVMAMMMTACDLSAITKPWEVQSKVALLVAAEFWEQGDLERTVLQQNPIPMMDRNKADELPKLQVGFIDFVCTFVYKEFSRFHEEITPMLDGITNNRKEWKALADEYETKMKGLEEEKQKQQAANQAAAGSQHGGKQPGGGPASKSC
T1 sequence (P23439 2-850): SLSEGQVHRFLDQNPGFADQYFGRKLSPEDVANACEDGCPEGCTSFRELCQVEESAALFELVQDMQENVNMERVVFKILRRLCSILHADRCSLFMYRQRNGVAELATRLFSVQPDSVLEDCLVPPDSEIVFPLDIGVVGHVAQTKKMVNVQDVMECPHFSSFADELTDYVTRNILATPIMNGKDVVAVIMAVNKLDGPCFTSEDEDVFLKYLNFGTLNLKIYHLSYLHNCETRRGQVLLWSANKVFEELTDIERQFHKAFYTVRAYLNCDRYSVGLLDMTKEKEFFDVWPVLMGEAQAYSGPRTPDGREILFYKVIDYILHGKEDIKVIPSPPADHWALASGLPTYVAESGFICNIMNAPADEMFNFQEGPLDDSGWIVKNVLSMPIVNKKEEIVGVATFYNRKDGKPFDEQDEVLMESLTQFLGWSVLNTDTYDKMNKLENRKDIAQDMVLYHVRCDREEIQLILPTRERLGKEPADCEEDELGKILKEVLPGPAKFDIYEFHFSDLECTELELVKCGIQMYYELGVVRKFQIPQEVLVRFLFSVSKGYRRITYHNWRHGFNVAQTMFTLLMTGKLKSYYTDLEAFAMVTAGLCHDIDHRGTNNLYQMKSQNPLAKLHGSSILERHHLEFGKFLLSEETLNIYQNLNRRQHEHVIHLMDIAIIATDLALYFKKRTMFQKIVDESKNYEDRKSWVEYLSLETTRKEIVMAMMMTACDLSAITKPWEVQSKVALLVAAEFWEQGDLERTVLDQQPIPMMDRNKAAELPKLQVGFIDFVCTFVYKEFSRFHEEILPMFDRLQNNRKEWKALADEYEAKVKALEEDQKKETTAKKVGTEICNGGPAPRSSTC
T1 sequence (P04972 1-87 partner): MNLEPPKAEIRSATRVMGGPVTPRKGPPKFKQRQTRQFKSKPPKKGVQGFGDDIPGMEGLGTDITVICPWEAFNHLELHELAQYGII
Nature of the series: PDE6 inhibition (selectivity). In kind it is biochemical. The following applies: substrate [3H]cGMP+cGMP 2 μM. The text has this:
(§1) cyclic nucleotide phosphodiesterases: PDE1 (bovine), PDE3 (human), PDE5 (human) and PDE6 (bovine), by following the methods described, respectively, by: (i, PDE1) Nicholson C. D., JACKMAN S. A. and WILKE R. (Brit. J. Pharmacol. 1989, 97, 889-897); (ii, PDE3 and PDE5) Weishaar, R. E., Burrows, S. D., Kobylarz, D. C., Quade, M. M. and Evans, D. B. (Biochem. Pharmacol., 1986, 35, 787-800); (iii PDE6) Ballard, A. S., Gingell, C. J., Tang, K., Turner, L. A., PRICE, M. E. (J. Urol, 1998, 159, 2164-2171). […] In the case of PDE5 and PDE 6, the substrate used is ([3H]cGMP+cGMP) at a concentration of 1 μM for PDE5 and 2 μM for PDE6. A quantitative measurement of the hydrolysis products [3H]-5′-AMP and [3H]-5′-GMP was determined by scintillation.

Series [2] deals with neurons cultured from fetal rat brain cortex. The series can be described thus: Neurite development in primary neuron cultures from fetal rat brain cortex. In kind it is cell-based. The method, then: FIG. 1 represents the effect of the molecule Ia5 on neurons in culture. The neurons are cultured in Neurobasal medium from fetal rat brain cortex according to the procedure described in example 4 and are photographed without staining 17 days after being placed in culture. Culture A is a control culture without compound. The molecule Ia5 was added to culture B on the 8th day after the placing in culture, at a concentration of 50 μM.
Compounds according to the invention were evaluated for their neurotrophic properties. The idea is therefore to observe the behavior of a neuron cell culture in the absence and presence of such molecules. The molecule called Ia5 used during this example is a molecule having the general structure Ic1, where n=2 and m=0, in the form of a sodium salt.
The adult animals are mated and the female rats are separated the following day. After 16 days, the gestating rats undergo a cesarean and the fetuses are placed in a Petri dish 100 mm in diameter. They are transferred, under a laminar flow hood, into sterile medium. The fetuses are isolated by units and are dissected under a binocular magnifying lens in sterile medium. The cerebral cortex is isolated and placed in a tube containing Neurobasal medium without antibiotic. […] The cells are counted using a Mallassez hematometer in the presence of trypan blue in order to determine the cell viability. […]

The subject of series [3] is rat embryonic motoneuron cells. Nature of the series: Apoptosis induced by elimination of BDNF in primary motoneuron cultures. Format: cell-based. The following applies: BDNF deprivation; concentration of 1 mM. The method, then:
This test was carried out according to the protocol described by Estevez A. G. et al. (J. Neurosci. 1998, 18(3), 923-931). Briefly, when primary cultures of rat embryonic motoneuron cells are deprived of brain-derived neurotrophic factor (BDNF), an induction of neuronal nitric oxide synthase (NOS) was observed, resulting in the gradual death of the neurons by apoptosis: between 18 and 24 hours after having realized the biological preparation, more than 60% of the neurons die. In this model of induced apoptosis, the compound sodium 4-[[1-(oxo)-3-(4-oxopyrazolo[1,5-a]-1,3,5-triazin-8-yl)propyl]amino]benzoate (Ia5) protects more than 70% of the neurons at a concentration of 1 mM.

For series [4], the system named is motoneurons. Nature of the series: Motoneuron apoptosis induced by peroxynitrite. In kind it is cell-based. The following applies: concentration of 1 mM. The method, then: This test was carried out according to the protocol described by Cassina P. et al. (J. Neurosci. Res. 2002 67(1): 21-9). Briefly, the oxidative stress mediated by nitric oxide and its toxic metabolite, peroxynitrite, has been associated with motoneuron degeneration, in particular in amyotrophic lateral sclerosis. The astrocytes of the spinal cord respond to extracellular concentrations of peroxynitrite by adopting a phenotype which is cytotoxic for the motoneurons. In this model of apoptosis induced by peroxynitrite, the compound sodium 4-[[1-(oxo)-3-(4-oxopyrazolo[1,5-a]-1,3,5-triazin-8-yl)propyl]amino]benzoate (Ia5) protects more than 60% of the neurons at a concentration of 1 mM.

For series [5], the system named is PDE1 (bovine). Nature of the series: PDE1 inhibition (selectivity). Conditions: substrate [3H]cAMP+cAMP 1 μM, 30 minutes at 30° C. In kind it is biochemical.
From the text: as §1

Series [6] relates to TNFα. Nature of the series: TNFα in supernatants of LPS-activated venous blood mononuclear cells (PBMCs), EIA. In kind it is cell-based. The following applies: PBMC, LPS 1 μg/ml, 24 hours incubation. The method, then: The compounds according to the invention were evaluated for their anti-inflammatory properties on venous blood mononuclear cells (PBMCs). More particularly, the cells were incubated for 24 hours in the presence of the molecule tested, after activation with lipopolysaccharide (LPS) (1 μg/ml) according to the protocol described by Schindler, R., Mancilla, J., Endres, S., Ghorbani, R., Clark, S. C. and Dinarello, C. A. (Blood, 1990, 75, 40-47). After incubation, the TNFα concentrations were measured in the culture supernatants by the EIA method.

Series [7] deals with T2, human phosphodiesterase type 2 (source: U-937 cells) (Homo sapiens, UniProt O00408).
T2 construct: human phosphodiesterase type 2 (source: U-937 cells); endogenous in cells; host or cells: U-937 cells
T2 sequence (O00408 whole entry): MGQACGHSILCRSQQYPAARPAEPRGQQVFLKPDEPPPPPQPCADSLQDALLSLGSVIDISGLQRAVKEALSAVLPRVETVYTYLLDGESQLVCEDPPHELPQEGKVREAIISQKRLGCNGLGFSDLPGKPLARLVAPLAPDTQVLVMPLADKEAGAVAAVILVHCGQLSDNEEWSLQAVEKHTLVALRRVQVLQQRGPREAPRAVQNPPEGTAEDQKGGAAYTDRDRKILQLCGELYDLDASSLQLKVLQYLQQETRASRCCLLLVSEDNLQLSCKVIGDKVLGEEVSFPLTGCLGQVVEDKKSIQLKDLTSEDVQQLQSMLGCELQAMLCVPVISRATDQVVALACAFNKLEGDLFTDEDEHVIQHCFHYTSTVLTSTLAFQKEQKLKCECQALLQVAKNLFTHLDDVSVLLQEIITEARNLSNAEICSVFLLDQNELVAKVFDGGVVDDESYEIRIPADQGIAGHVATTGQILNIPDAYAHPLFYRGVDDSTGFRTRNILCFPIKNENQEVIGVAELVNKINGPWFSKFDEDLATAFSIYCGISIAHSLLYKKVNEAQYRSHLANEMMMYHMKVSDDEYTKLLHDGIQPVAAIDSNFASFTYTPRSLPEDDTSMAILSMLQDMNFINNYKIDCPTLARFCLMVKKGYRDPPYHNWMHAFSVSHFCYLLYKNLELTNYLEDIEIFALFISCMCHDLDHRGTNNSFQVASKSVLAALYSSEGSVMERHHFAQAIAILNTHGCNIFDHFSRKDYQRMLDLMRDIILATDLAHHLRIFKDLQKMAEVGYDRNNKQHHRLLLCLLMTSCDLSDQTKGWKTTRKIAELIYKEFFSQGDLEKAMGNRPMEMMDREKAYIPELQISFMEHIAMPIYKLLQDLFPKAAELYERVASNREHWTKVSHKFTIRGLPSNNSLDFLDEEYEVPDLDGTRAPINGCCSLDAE
The series can be described thus: PDE2 inhibition, [3H]cAMP hydrolysis, scintillation. Format: biochemical. The following applies: substrate [3H]cAMP+cAMP 1 μM, 30 minutes at 30° C.
Method: This novel family of compounds was tested as an inhibitor of human phosphodiesterase type 2 (source: U-937 cells) by following the method described by Torphy, T. J., Zhou, H. L. and Cieslinski, L. B. (J. Pharmacol. Exp. Ther., 1992, 263, 1195-1205). […] A quantitative measurement of the hydrolysis product [3H]-5′-AMP was determined by scintillation.

Usually melting point stands for the temperature of the solid-liquid transition. In turn, `CCCc1nc(N(C)c2ccccc2)n2ncc(C(O)c3cccs3)c2n1` (stereo not shown) [Ib18, 8-[(Hydroxy)(2-thienyl)methyl]-4-(N-methyl-N-phenylamino)-2-n-propylpyrazolo[1,5-a]-1,3,5-triazine] registered a melting point of 150 to 152 °C.
The IC50 is the concentration that inhibits the measured activity by half. A high value points to a need for much substance. As to `CCCOc1ccccc1-c1nc2nn[nH]c2c(=O)[nH]1` [zaprinast], in series [1], the IC50 came to 380 nM.
Turning to `O=C(CCc1cnn2c(=O)[nH]cnc12)Nc1ccc(C(=O)[O-])cc1.[Na+]` [Ia5, Sodium 4-[[1-(oxo)-3-(4-oxopyrazolo[1,5-a]-1,3,5-triazin-8-yl)propyl]amino]benzoate], the “neurite morphology in culture B compared with control A (FIG. 1)” value in series [2] (50 μM added on the 8th day, photographed 17 days after being placed in culture) is “thickening and an elongation of the neurites”. The “neurite development compared with control cells” value in series [2] (primary fetal rat cortex neurons, test molecule at 0.1, 1 and 10 μmol/l) is given as “greater neurite development than in the cells acting as control”. The neurons protected entry in series [3] is given as “more than 70%”; in series [4], “more than 60%”.
In the case of `CCCc1nc(N(C)c2ccccc2)n2ncc(C(O)c3ccoc3)c2n1` (stereo not shown) [Ib15, 8-[(3-Furyl)(hydroxy)methyl]-4-(N-methyl-N-phenylamino)-2-n-propylpyrazolo[1,5-a]-1,3,5-triazine], the melting point fell in the range of 142 to 144 °C.
In the case of `COCc1nc2c([nH]1)c(=O)n(C)c(=O)n2CC(C)C` [8-methoxy-IBMX], inhibition in series [5] was half-maximal at 2900 nM (IC50).
In turn, `C[C@@H]1C[C@H]2[C@@H]3CCC4=CC(=O)C=C[C@]4(C)[C@@]3(F)[C@@H](O)C[C@]2(C)[C@@]1(O)C(=O)CO` [dexamethasone] displayed a concentration for half-maximal inhibition (IC50) in series [6] of 4600 nM.
As to `CCCCCC[C@@H]([C@@H](C)O)n1cnc2c(N)ncnc21` (racemic) [EHNA], it took 2100 nM to reach half-maximal inhibition in series [7] (IC50).
